# Measured values published in the supplement of paper PMC10331698.
# ± gives the standard deviation of the averaged measurements.
# Legend:
# Assay in all cases: level (log10 ratio to DMSO vehicle control); higher = higher biomarker level / cell amount than vehicle control
# [1] = compound: CO[Si](C)(CCC(F)(F)C(F)(F)C(F)(F)C(F)(F)C(F)(F)C(F)(F)F)OC [Dimethoxymethyl((perfluorohexyl)ethyl)silane] (in DMSO)
# Description: (§1)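 BioMAP Diversity Plus panel of 12 human primary cell co-culture systems (3C, 4H, LPS, SAg, BT, BF4T, BE3C, CASM3C, HDF3CGF, KF3CT, MyoF, Mphg). Compounds were added 1 h before stimulation and left for 24 h (MyoF 48 h; BT 72 h for soluble read-outs or 6 d for IgG). Biomarkers were read by ELISA, cytotoxicity by SRB, PBMC viability and proliferation by Alamar Blue. Each well value was divided by the mean of 8 DMSO control wells on the same plate and log10 transformed; duplicate blinded samples were tested at 4 concentrations.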
# [2] = compound: O=S(=O)(O)CCC(F)(F)C(F)(F)C(F)(F)C(F)(F)C(F)(F)C(F)(F)C(F)(F)C(F)(F)F [8:2 Fluorotelomer sulfonic acid] (in DMSO)
# Description: as §1
# Perfluorononanoic acid = compound: O=C(O)C(F)(F)C(F)(F)C(F)(F)C(F)(F)C(F)(F)C(F)(F)C(F)(F)C(F)(F)F [Perfluorononanoic acid] (in DMSO)
# Description: as §1
# [3] = compound: O=C(O)CCC(F)(C(F)(F)F)C(F)(F)F [4,4-bis(Trifluoromethyl)-4-fluoropropanoic acid] (in DMSO)
# Description: as §1
# Perfluoroundecanoic acid = compound: O=C(O)C(F)(F)C(F)(F)C(F)(F)C(F)(F)C(F)(F)C(F)(F)C(F)(F)C(F)(F)C(F)(F)C(F)(F)F [Perfluoroundecanoic acid] (in DMSO); conditions: 6700 nM
# Description: as §1
# [4] = compound: OCC(F)(F)C(F)(F)C(F)(F)C(F)(F)C(F)(F)C(F)(F)CO [1H,1H,8H,8H-Perfluorooctane-1,8-diol] (in DMSO)
# Description: as §1
# [5] = compound: OCC(F)(F)OC(F)(F)C(F)(F)OC(F)(F)C(F)(F)OC(F)(F)CO [1H,1H,11H,11H-Perfluorotetraethylene glycol] (in DMSO)
# Description: as §1
# [6] = compound: CCOC(=O)CC(=O)C(F)(F)C(F)(F)F [Ethyl pentafluoropropionyl acetate] (in DMSO)
# Description: as §1
Test System,level (log10) ([1]; 6700 nM),level (log10) ([1]; 20000 nM),level (log10) ([2]; 6700 nM),level (log10) ([2]; 20000 nM),level (log10) ([2]; 60000 nM),level (log10) (Perfluorononanoic acid; 6700 nM),level (log10) (Perfluorononanoic acid; 20000 nM),level (log10) ([3]; 6700 nM),level (log10) ([3]; 20000 nM),level (log10) ([3]; 60000 nM),level (log10) (Perfluoroundecanoic acid),level (log10) ([4]; 6700 nM),level (log10) ([4]; 20000 nM),level (log10) ([4]; 60000 nM),level (log10) ([5]; 6700 nM),level (log10) ([5]; 20000 nM),level (log10) ([5]; 60000 nM),level (log10) ([6]; 6700 nM),level (log10) ([6]; 20000 nM),level (log10) ([6]; 60000 nM)
LPS:sPGE2,0 ± 0.042,-0.0145 ± 0.035,-0.0245 ± 0.0035,-0.078 ± 0.047,-0.293 ± 0.017,-0.0695 ± 0.00071,-0.144 ± 0.0064,-0.0445 ± 0.019,-0.018 ± 0.033,0.011 ± 0.0085,-0.0665 ± 0.044,-0.0255 ± 0.012,0.022 ± 0.0057,-0.0015 ± 0.016,0.032 ± 0.034,0.0965 ± 0.0078,0.056 ± 0.011,0.0175 ± 0.012,-0.0005 ± 0.013,0.034 ± 0.0014
LPS:sTNF-alpha,-0.0025 ± 0.0078,-0.0045 ± 0.0078,0.0095 ± 0.011,-0.006 ± 0.0099,-0.212 ± 0.12,-0.0115 ± 0.028,0.0115 ± 0.025,-0.046 ± 0.045,-0.013 ± 0.05,-0.003 ± 0.018,-0.0415 ± 0.00071,-0.123 ± 0.074,-0.145 ± 0.041,-0.146 ± 0.018,0.0035 ± 0.0078,0.002 ± 0.0085,-0.082 ± 0.0099,0.0125 ± 0.015,0.0095 ± 0.0064,0.0085 ± 0.012
SAg:CCL2/MCP-1,-0.0215 ± 0.00071,-0.0145 ± 0.0064,-0.0035 ± 0.019,0 ± 0.0099,-0.0025 ± 0.0078,-0.0015 ± 0.0035,0.0555 ± 0.013,0 ± 0.033,-0.0125 ± 0.00071,-0.0125 ± 0.025,-0.0155 ± 0.0035,-0.0075 ± 0.00071,-0.015 ± 0.0071,-0.0085 ± 0.00071,-0.023 ± 0.038,-0.0395 ± 0.03,-0.094 ± 0.024,-0.0005 ± 0.011,-0.0225 ± 0.0078,0.011 ± 0.0085
SAg:CD38,0.0075 ± 0.018,0.014 ± 0.0028,-0.0175 ± 0.04,-0.02 ± 0.034,-0.0595 ± 0.053,0.0155 ± 0.069,0.0205 ± 0.056,-0.02 ± 0.047,-0.008 ± 0.013,-0.0025 ± 0.019,-0.0175 ± 0.022,-0.0105 ± 0.011,-0.003 ± 0.02,-0.013 ± 0.0028,-0.0035 ± 0.049,-0.0255 ± 0.023,-0.0895 ± 0.033,-0.0055 ± 0.049,0.019 ± 0.045,-0.0175 ± 0.0021
SAg:CD40,-0.0095 ± 0.0078,-0.022 ± 0.0042,-0.013 ± 0.051,-0.0215 ± 0.021,-0.071 ± 0.051,-0.0285 ± 0.044,-0.057 ± 0.02,-0.0495 ± 0.073,-0.0245 ± 0.077,-0.055 ± 0.089,-0.013 ± 0.0028,-0.024 ± 0.05,-0.0115 ± 0.064,-0.0525 ± 0.043,0.011 ± 0.03,-0.035 ± 0.044,-0.132 ± 0.043,0.005 ± 0.0028,-0.0205 ± 0.0021,-0.0275 ± 0.0035
SAg:CD62E/E-Selectin,-0.0185 ± 0.019,0.0235 ± 0.0035,0.0085 ± 0.042,0.0465 ± 0.013,0.109 ± 0.0042,-0.01 ± 0.03,0.0315 ± 0.039,-0.011 ± 0.011,-0.0025 ± 0.021,-0.013 ± 0.0028,0.034 ± 0.038,0.0005 ± 0.00071,-0.026 ± 0.0028,-0.016 ± 0.0042,-0.009 ± 0.042,-0.0455 ± 0.0078,-0.276 ± 0.062,-0.0005 ± 0.018,-0.006 ± 0.0028,0.004 ± 0.033
SAg:CD69,-0.032 ± 0.033,-0.0115 ± 0.011,-0.025 ± 0.057,-0.0205 ± 0.04,-0.043 ± 0.075,-0.035,-0.0335 ± 0.015,-0.0395 ± 0.0021,-0.0205 ± 0.00071,-0.0515 ± 0.046,-0.0285 ± 0.018,-0.022 ± 0.031,-0.002 ± 0.0071,-0.0145 ± 0.015,-0.0095 ± 0.1,-0.0275 ± 0.066,-0.162 ± 0.061,0.0075 ± 0.026,-0.0015 ± 0.029,0.019 ± 0.05
SAg:CXCL8/IL-8,-0.0085 ± 0.012,0.0145 ± 0.018,-0.0075 ± 0.076,-0.009 ± 0.014,0.071 ± 0.044,-0.0165 ± 0.029,0.0095 ± 0.036,0.027 ± 0.035,0.0095 ± 0.064,0.019 ± 0.079,-0.021 ± 0.0028,-0.0205 ± 0.04,-0.0245 ± 0.019,0.0095 ± 0.035,-0.0225 ± 0.069,-0.061 ± 0.072,-0.209 ± 0.005,-0.023 ± 0.016,-0.0475 ± 0.032,-0.007 ± 0.085
SAg:CXCL9/MIG,0.0075 ± 0.0021,-0.0035 ± 0.0035,0.0005 ± 0.018,-0.008 ± 0.0028,0.001 ± 0.0057,0.005 ± 0.017,-0.004 ± 0.013,0.0015 ± 0.0064,0.008 ± 0.0042,0.0035 ± 0.00071,0.0005 ± 0.0064,-0.0055 ± 0.0021,0.0035 ± 0.0064,0.02 ± 0.0085,-0.0095 ± 0.005,0.0095 ± 0.0035,0.015 ± 0.0071,-0.001 ± 0.011,-0.015 ± 0.0099,0.0065 ± 0.0021
SAg:PBMC Cytotoxicity,-0.0045 ± 0.012,0.019 ± 0.0057,-0.0125 ± 0.015,0 ± 0.0042,0.0075 ± 0.0021,0.006 ± 0.018,0.015 ± 0.013,0.004 ± 0.0042,-0.0015 ± 0.0092,0.008 ± 0.027,0.006 ± 0.0028,-0.0045 ± 0.03,0.036 ± 0.062,0.0305 ± 0.033,-0.023 ± 0.034,0.008 ± 0.016,-0.002 ± 0.033,-0.0055 ± 0.032,-0.005 ± 0.025,-0.0015 ± 0.021
SAg:Proliferation,0.051 ± 0.048,-0.004 ± 0.13,-0.02 ± 0.054,-0.0085 ± 0.011,-0.0735 ± 0.0035,0.0075 ± 0.056,0.0035 ± 0.0092,0.007 ± 0.051,-0.03 ± 0.044,0.0375 ± 0.053,0.0125 ± 0.059,-0.0035 ± 0.033,0 ± 0.025,-0.0055 ± 0.039,-0.0355 ± 0.074,-0.0455 ± 0.00071,-0.126 ± 0.016,0.001 ± 0.065,-0.004 ± 0.025,0.0315 ± 0.047
SAg:SRB,-0.0125 ± 0.013,0.0045 ± 0.0035,-0.0075 ± 0.0035,-0.0095 ± 0.0035,-0.0335 ± 0.011,-0.01 ± 0.0085,-0.002 ± 0.0099,-0.0035 ± 0.0078,0.006 ± 0.0042,0.003 ± 0.016,0.0015 ± 0.0092,0.009 ± 0.0085,0.0045 ± 0.005,0.0025 ± 0.021,-0.008 ± 0.025,-0.0175 ± 0.021,-0.045 ± 0.021,0 ± 0.0057,0.004,-0.003 ± 0.02
